ChEMBL document CHEMBL1201862, “PubChem BioAssay data set” (2004)
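Assay format: 96-well plates, 48-hour exposure. Abbreviation: GI50, concentration required for 50% inhibition of growth.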 Calls of active or inactive are those of the source. No stated cut-off is given here; in the data, active = GI50 up to about 1.1 µM and inactive = higher.

What was measured:
Assay in all cases: NCI anticancer screen, dose series, 48 h
K562 = tested on: K562
OVCAR-8 = tested on: OVCAR-8
OVCAR-4 = tested on: OVCAR-4
A498 = tested on: A498
COLO 205 = tested on: COLO 205
SK-MEL-2 = tested on: SK-MEL-2
NCI-H23 = tested on: NCI-H23
KM12 = tested on: KM12
CAKI-1 = tested on: CAKI-1
786-0 = tested on: 786-0
UACC-62 = tested on: UACC-62
SF-268 = tested on: SF-268
Malme-3M = tested on: Malme-3M
MDA-MB-435 = tested on: MDA-MB-435
NCI-H226 = tested on: NCI-H226
DU-145 = tested on: DU-145
TK-10 = tested on: TK-10
Hs-578T = tested on: Hs-578T
SK-MEL-28 = tested on: SK-MEL-28
UO-31 = tested on: UO-31
NCI-H460 = tested on: NCI-H460
UACC-257 = tested on: UACC-257
HCT-116 = tested on: HCT-116
NCI/ADR-RES = tested on: NCI/ADR-RES
SR = tested on: SR
SW-620 = tested on: SW-620
SNB-19 = tested on: SNB-19
BT-549 = tested on: BT-549
U-251 = tested on: U-251
RPMI-8226 = tested on: RPMI-8226
HOP-92 = tested on: HOP-92
SK-MEL-5 = tested on: SK-MEL-5
LOX IMVI = tested on: LOX IMVI
CCRF-CEM = tested on: CCRF-CEM
HCC 2998 = tested on: HCC 2998
MDA-MB-231 = tested on: MDA-MB-231
SN12C = tested on: SN12C
T47D = tested on: T47D
A549 = tested on: A549
MDA-N = tested on: MDA-N
NCI-H522 = tested on: NCI-H522
PC-3 = tested on: PC-3
ACHN = tested on: ACHN
SNB-75 = tested on: SNB-75
HCT-15 = tested on: HCT-15
IGROV-1 = tested on: IGROV-1
HT-29 = tested on: HT-29
SF-295 = tested on: SF-295
EKVX = tested on: EKVX
HL-60 = tested on: HL-60
RXF 393 = tested on: RXF 393
MCF7 = tested on: MCF7
SF-539 = tested on: SF-539
OVCAR-5 = tested on: OVCAR-5
M14 = tested on: M14
MOLT-4 = tested on: MOLT-4
SK-OV-3 = tested on: SK-OV-3

For `CN(C)CCN1C(=O)N(CCN(C)C)c2c3cc(O)ccc3nc3c([N+](=O)[O-])ccc1c23`, the GI50 (K562) was 4570 nM (inactive), the GI50 (OVCAR-8) was 5550 nM (inactive) and the GI50 (OVCAR-4) was 9660 nM (inactive). The GI50 (A498) was 15700 nM (inactive), the GI50 (COLO 205) was 10400 nM (inactive) and the GI50 (SK-MEL-2) was 24800 nM (inactive). The GI50 (NCI-H23) was 17200 nM (inactive), the GI50 (KM12) was 7910 nM (inactive) and the GI50 (CAKI-1) was 13100 nM (inactive). The GI50 (786-0) was 6620 nM (inactive), the GI50 (UACC-62) was 15900 nM (inactive) and the GI50 (SF-268) was 8470 nM (inactive). The GI50 (Malme-3M) was 15800 nM (inactive), the GI50 (MDA-MB-435) was 14800 nM (inactive) and the GI50 (NCI-H226) was 12600 nM (inactive). For the same compound, the GI50 (DU-145) was 10700 nM (inactive), the GI50 (TK-10) was 10600 nM (inactive) and the GI50 (Hs-578T) was 16900 nM (inactive). The GI50 (SK-MEL-28) was 25300 nM (inactive), the GI50 (UO-31) was 16700 nM (inactive) and the GI50 (NCI-H460) was 3630 nM (inactive). The GI50 (UACC-257) was 15300 nM (inactive), the GI50 (HCT-116) was 5580 nM (inactive) and the GI50 (NCI/ADR-RES) was 19400 nM (inactive). For the same compound, the GI50 (SR) was 245 nM (active), the GI50 (SW-620) was 4920 nM (inactive) and the GI50 (SNB-19) was 6050 nM (inactive). For the same compound, the GI50 (BT-549) was 19800 nM (inactive), the GI50 (U-251) was 9930 nM (inactive) and the GI50 (RPMI-8226) was 14200 nM (inactive). The GI50 (HOP-92) was 15300 nM (inactive), the GI50 (SK-MEL-5) was 13700 nM (inactive) and the GI50 (LOX IMVI) was 10700 nM (inactive). For the same compound, the GI50 (CCRF-CEM) was 538 nM (active), the GI50 (HCC 2998) was 8730 nM (inactive) and the GI50 (MDA-MB-231) was 10500 nM (inactive). The GI50 (SN12C) was 9200 nM (inactive), the GI50 (T47D) was 18400 nM (inactive) and the GI50 (A549) was 9120 nM (inactive). The GI50 (MDA-N) was 13000 nM (inactive), the GI50 (NCI-H522) was 16600 nM (inactive) and the GI50 (PC-3) was 8630 nM (inactive). For the same compound, the GI50 (ACHN) was 6220 nM (inactive), the GI50 (SNB-75) was 19100 nM (inactive) and the GI50 (HCT-15) was 6520 nM. For the same compound, the GI50 (IGROV-1) was 2810 nM (inactive) and the GI50 (HT-29) was 6080 nM (inactive).
With `CC[C@@H]1/C=C/C=C/C[C@H](C)[C@@H](O)[C@](C)(O)C(=O)[C@H](C)[C@@H](O)[C@H](C)C(=O)[C@H](C)[C@@H](O)[C@H](C)/C=C/C(=O)O[C@H]2[C@@H](C)[C@@H](CC1)O[C@@]1(CC[C@@H](C)[C@@H](CC(C)O)O1)[C@@H]2C` (some centres undefined) the GI50 (K562) was < 10 nM (active), the GI50 (OVCAR-8) was < 10 nM (active) and the GI50 (COLO 205) was < 10 nM (active). The GI50 (SK-MEL-2) was 2130 nM (inactive), the GI50 (SF-295) was < 10 nM (active) and the GI50 (NCI-H23) was < 10 nM (active). For the same compound, the GI50 (EKVX) was < 10 nM (active), the GI50 (KM12) was 1690 nM (inactive) and the GI50 (CAKI-1) was 1730 nM (inactive). For the same compound, the GI50 (786-0) was 1850 nM (inactive), the GI50 (UACC-62) was 1710 nM (inactive) and the GI50 (SF-268) was 2700 nM (inactive). The GI50 (Malme-3M) was 3490 nM (inactive), the GI50 (MDA-MB-435) was 1520 nM (inactive) and the GI50 (DU-145) was 1880 nM (inactive). For the same compound, the GI50 (TK-10) was 1650 nM (inactive), the GI50 (HL-60) was < 10 nM (active) and the GI50 (Hs-578T) was 2880 nM (inactive). The GI50 (SK-MEL-28) was 6500 nM (inactive), the GI50 (UO-31) was 30.7 nM (active) and the GI50 (NCI-H460) was 499 nM (active). The GI50 (RXF 393) was 1680 nM (inactive), the GI50 (UACC-257) was < 10 nM (active) and the GI50 (HCT-116) was 1100 nM (active). For the same compound, the GI50 (MCF7) was < 10 nM (active), the GI50 (SR) was 2000 nM (inactive) and the GI50 (SW-620) was 2920 nM (inactive). For the same compound, the GI50 (SNB-19) was < 10 nM (active), the GI50 (BT-549) was 1520 nM (inactive) and the GI50 (U-251) was < 10 nM (active). The GI50 (RPMI-8226) was < 16.2 nM (active), the GI50 (HOP-92) was 1590 nM (inactive) and the GI50 (SK-MEL-5) was < 10 nM (active). For the same compound, the GI50 (LOX IMVI) was 1680 nM (inactive), the GI50 (SF-539) was 3580 nM (inactive) and the GI50 (OVCAR-5) was 1680 nM (inactive). For the same compound, the GI50 (CCRF-CEM) was 1220 nM (inactive), the GI50 (M14) was 1240 nM (inactive) and the GI50 (HCC 2998) was 1520 nM (inactive). The GI50 (MDA-MB-231) was 1830 nM (inactive), the GI50 (SN12C) was 1720 nM (inactive) and the GI50 (T47D) was < 10 nM (active). The GI50 (A549) was < 10 nM (active), the GI50 (MDA-N) was 1610 nM (inactive) and the GI50 (NCI-H522) was < 10 nM (active). The GI50 (PC-3) was < 10 nM (active), the GI50 (ACHN) was 1350 nM (inactive) and the GI50 (MOLT-4) was 1300 nM (inactive). For the same compound, the GI50 (HCT-15) was 1860 nM, the GI50 (IGROV-1) was 1980 nM (inactive) and the GI50 (SK-OV-3) was 3130 nM (inactive). The GI50 (HT-29) was 1360 nM (inactive).
